From US20240398813A1, “PHARMACEUTICAL COMPOSITION FOR PREVENTING OR TREATING OVERACTIVE BLADDER” (GWANGJU INSTITUTE OF SCIENCE AND TECHNOLOGY, priority 2021, published 2024)

Experiments:
[1] = target: T1, BKCa channels (rat KCNMA, rSlo α) (Rattus norvegicus, UniProt Q62976); assay: Macroscopic current recording, outside-out patch clamp, BKCa channels expressed in Xenopus oocytes; assay type: cell-based
T1 construct: expressed in transfected cells; host or cells: Xenopus laevis oocytes injected with cRNA
T1 sequence (Q62976 whole entry): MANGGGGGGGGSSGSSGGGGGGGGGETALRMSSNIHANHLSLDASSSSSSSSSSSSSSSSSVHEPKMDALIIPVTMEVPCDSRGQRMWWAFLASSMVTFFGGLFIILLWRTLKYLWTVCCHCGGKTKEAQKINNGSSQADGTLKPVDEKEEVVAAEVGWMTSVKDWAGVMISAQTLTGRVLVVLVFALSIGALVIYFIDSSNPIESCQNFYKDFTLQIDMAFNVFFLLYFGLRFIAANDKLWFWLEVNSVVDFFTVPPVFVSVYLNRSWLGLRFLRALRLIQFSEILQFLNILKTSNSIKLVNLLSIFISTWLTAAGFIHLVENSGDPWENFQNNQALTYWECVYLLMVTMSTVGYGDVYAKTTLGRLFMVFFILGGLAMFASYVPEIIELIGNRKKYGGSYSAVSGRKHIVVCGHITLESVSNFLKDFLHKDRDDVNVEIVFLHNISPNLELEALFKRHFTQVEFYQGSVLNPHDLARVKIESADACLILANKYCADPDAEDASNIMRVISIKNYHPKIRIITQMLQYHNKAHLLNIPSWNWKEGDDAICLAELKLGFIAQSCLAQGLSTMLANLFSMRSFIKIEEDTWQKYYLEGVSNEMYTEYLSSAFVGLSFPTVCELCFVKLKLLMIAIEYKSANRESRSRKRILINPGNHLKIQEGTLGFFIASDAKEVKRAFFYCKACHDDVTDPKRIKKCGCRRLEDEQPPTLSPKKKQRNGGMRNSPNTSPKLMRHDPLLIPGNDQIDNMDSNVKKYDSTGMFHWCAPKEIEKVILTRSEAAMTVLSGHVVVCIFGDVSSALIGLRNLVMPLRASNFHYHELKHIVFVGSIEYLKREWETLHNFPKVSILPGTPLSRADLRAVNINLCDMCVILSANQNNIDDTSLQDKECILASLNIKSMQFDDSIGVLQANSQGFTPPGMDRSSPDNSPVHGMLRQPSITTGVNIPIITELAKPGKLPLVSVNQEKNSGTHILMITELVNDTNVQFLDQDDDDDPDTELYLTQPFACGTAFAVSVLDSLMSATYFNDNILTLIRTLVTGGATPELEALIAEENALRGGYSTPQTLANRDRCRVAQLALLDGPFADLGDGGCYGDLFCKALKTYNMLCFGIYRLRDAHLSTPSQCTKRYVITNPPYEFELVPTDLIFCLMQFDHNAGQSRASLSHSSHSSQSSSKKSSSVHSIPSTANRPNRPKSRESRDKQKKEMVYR
Description: (§1) The complete coding sequence (CDS) of each of rat KCNMA (rSlo α) (GenBank AF135265.1), KCNMB1 (rSlo 01) (GenBank FJ154955.1) and KCNMB4 (rSlo β4) (GenBank AY028605) was subcloned into pNBC2.0 or pNBC2.0. These vectors were designed to be expressed in Xenopus oocytes (Ha, T. S., Lim, H. H., Lee, G. E., Kim, Y. C., & Park, C. S. (2006). Electrophysiological characterization of benzofuroindole-induced potentiation of large-conductance Ca2+-activated K+ channels. Mol Pharmacol, 69(3), 1007-1014). The plasmid was linearized by NotI and complementary RNA (cRNA) was synthesized using the Ambion T7 mMESSAGE mMACHINE kit (Invitrogen, Carlsbad, CA, USA) according to the manufacturer's instructions. Xenopus laevis (KXRCR000001) was obtained from the Korea Xenopus Resource Center for Research (Chuncheon-si, Gangwon-do, Korea). Stage V-VI oocytes were surgically extracted from the ovarian lobes of X. laevis. A follicular cell layer was removed by culturing in Ca^2+-free oocyte Ringer's medium (86 mM NaCl, 1.5 mM KCl, 2 mM MgCl2 and 10 mM HEPES, pH 7.6) containing collagenase for 1.5 hours at room temperature. Oocytes without follicular layer were washed with ND-96 medium (96 mM NaCl, 2 mM KCl, 1.8 mM CaCl2), 1 mM MgCl2, 5 mM HEPES, […] gentamicin, pH 7.6). The prepared oocytes were stabilized overnight at 18° C. cRNA was injected into each oocyte (50 ng per oocyte) using a microdispenser (Drummond Scientific, Broomall, PA, USA). For co-expression of the β subunits, cRNA was mixed at a molar ratio of 1:12 (α:β) to induce sufficient co-assembly of the R subunits. After injection of cRNA, the oocytes were cultured in ND-96 medium for 1-3 days at 18° C. Before recording macroscopic currents, vitelline membranes of the oocytes were completely removed using fine forceps.
All macroscopic current recordings in the BKCa channels were performed using the gigaohm-seal patch-clamp method in an outside-out configuration (Ha et al., 2006). A patch pipette was made of borosilicate glass (WPI, Sarasota, FL, USA) and fire-polished by a resistance of 3-5 MQ. Ion currents were amplified using an Axopatch 200B amplifier (Molecular Devices). The currents were low-pass filtered at 1 kHz using a four-pole Bessel filter and digitized at a rate of 10 or 20 points/ms using a Digidata 1200A interface (Molecular Devices). The BKCa channels were activated by repeated voltage clamps at +100 mV or by voltage clamp pulses ranging from −80 to +200 mV with an increment of 10 mV. The resting potential was maintained at −100 mV. The recording solution contained 116 mM KOH, 4 mM KCl, 10 mM HEPES, and 5 mM EGTA (pH 7.2). The intracellular solution contained 3 μM Ca^2+ in the recording solution (pH 7.0). MaxChelator program was used to calculate the total amount of Ca^2+ to be added to the intracellular solution for obtaining free Ca^2+ at a concentration of 3 μM.
The commercial software Clampex 8.0 (Molecular Device) and Origin 9.1 (OriginLab Corp., Northampton, MA, USA) were used for data analysis and fitting of the macroscopic currents. A conductance-voltage (G-V) curve obtained from the external current was fitted by the Boltzmann equation [y=(Gmax−Gmin)/{1+exp[(V1/2−x)/k]}+Gmin]. Wherein k is RT/zF, and wherein R is a gas constant, T is a temperature, F is the Faraday's constant, and z is a gating charge. Gmax is the maximum conductivity and V1/2 is a voltage for half maximum conductivity. The concentration-dependent V1/2 shift was fitted by the Hill equation [y=AVi/2,max x^n/(EC50^n+x^n)]. Wherein ΔV1/2,max is a constant. EC50 is half the apparent maximum effective concentration and n is the Hill coefficient. By definition, the apparent dissociation constant KD was obtained by EC50^n. The association time constant (r association) was obtained by fitting the exponential equation [y=A exp(−x/τ)+C]. Wherein A and C are constants and τ is the time to reach (1−1/e) ( ? 63%) of the maximum current level. […]

[2] = target: T2, BKCa channels co-expressed with the β1 subunit (rSlo α + KCNMB1) (Rattus norvegicus, UniProt Q62976); assay: Macroscopic current recording, BKCa channels co-expressed with β1 subunits in Xenopus oocytes; assay type: cell-based; details: 10 μM
T2 construct: expressed in transfected cells; host or cells: Xenopus laevis oocytes, cRNA alpha:beta 1:12
T2 sequence (Q62976 whole entry): as above
T2 sequence (P97678 whole entry partner): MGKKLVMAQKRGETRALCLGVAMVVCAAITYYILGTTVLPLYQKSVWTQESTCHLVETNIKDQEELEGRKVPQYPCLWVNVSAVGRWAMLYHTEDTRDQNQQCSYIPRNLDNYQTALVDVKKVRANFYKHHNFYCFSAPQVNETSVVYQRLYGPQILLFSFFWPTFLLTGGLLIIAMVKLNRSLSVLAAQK
Description: as §1
(§2) All macroscopic current recordings in the BKCa channels were performed using the gigaohm-seal patch-clamp method in an outside-out configuration (Ha et al., 2006). A patch pipette was made of borosilicate glass (WPI, Sarasota, FL, USA) and fire-polished by a resistance of 3-5 MQ. […]

[3] = target: T3, BKCa channels co-expressed with the β4 subunits (rSlo α + KCNMB4) (Rattus norvegicus, UniProt Q62976); assay: Macroscopic current recording, BKCa channels co-expressed with β4 subunits in Xenopus oocytes; assay type: cell-based; details: 10 μM
T3 construct: expressed in transfected cells; host or cells: Xenopus laevis oocytes, cRNA alpha:beta 1:12
T3 sequence (Q62976 whole entry): as the sequence (Q62976 whole entry) above
T3 sequence (Q9ESK8 whole entry partner): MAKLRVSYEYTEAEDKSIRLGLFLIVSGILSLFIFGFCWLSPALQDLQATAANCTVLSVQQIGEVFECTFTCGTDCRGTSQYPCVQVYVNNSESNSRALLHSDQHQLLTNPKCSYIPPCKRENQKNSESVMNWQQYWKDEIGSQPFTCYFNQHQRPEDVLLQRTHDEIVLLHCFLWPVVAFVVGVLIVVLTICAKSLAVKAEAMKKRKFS
Description: as §1, §2

[4] = tested on: Spontaneously hypertensive rats (SHR); assay: In vivo model of OAB: urination in spontaneously hypertensive rats after oral administration; set-up: species or system rat; details: 3 hours
Procedure: Male rats with body weights of 300 to 350 g were deprived of food and water overnight before the experiment, and then were randomly divided into a drug administration group and a control group. All animals were provided free access to water for 2 hours, and then 10 mL/kg of vehicle solution [DMSO:PEG400:distilled water=5:40:55 (v/v)] as a test substance were orally administered. After oral administration of the test substance, the rats were placed in a metabolic cage and the number of urinations and urine volume were measured for 3 hours.
The in vivo treatment effects of the compounds for […] were investigated in spontaneously hypertensive rats (SHR) with OAB symptoms after oral administration. Wistar-Kyoto rats (WKY) were used as the healthy animal control, and urination frequency was increased more than 2.8 times in SHR compared to WKY. Compound 208 reduced the urination frequency in SHR (50 mg/kg) by 33%, which is quite close to the urination frequency of the normal group (see FIG. 18).

[5] = target: T4, hyperactive mutant BKCa channels (hSlo G803D/N806K) stably expressed in AD 293 cells (Homo sapiens, UniProt Q12791, G856D/N859K); assay: Cell-based fluorescence assay (FluxOR Potassium Ion Channel Assay) of BKCa channel activation; details: compounds at 5 μM; n=3; vehicle 0.26
T4 construct: expressed in transfected cells
T4 sequence (Q12791 whole entry G856D/N859K): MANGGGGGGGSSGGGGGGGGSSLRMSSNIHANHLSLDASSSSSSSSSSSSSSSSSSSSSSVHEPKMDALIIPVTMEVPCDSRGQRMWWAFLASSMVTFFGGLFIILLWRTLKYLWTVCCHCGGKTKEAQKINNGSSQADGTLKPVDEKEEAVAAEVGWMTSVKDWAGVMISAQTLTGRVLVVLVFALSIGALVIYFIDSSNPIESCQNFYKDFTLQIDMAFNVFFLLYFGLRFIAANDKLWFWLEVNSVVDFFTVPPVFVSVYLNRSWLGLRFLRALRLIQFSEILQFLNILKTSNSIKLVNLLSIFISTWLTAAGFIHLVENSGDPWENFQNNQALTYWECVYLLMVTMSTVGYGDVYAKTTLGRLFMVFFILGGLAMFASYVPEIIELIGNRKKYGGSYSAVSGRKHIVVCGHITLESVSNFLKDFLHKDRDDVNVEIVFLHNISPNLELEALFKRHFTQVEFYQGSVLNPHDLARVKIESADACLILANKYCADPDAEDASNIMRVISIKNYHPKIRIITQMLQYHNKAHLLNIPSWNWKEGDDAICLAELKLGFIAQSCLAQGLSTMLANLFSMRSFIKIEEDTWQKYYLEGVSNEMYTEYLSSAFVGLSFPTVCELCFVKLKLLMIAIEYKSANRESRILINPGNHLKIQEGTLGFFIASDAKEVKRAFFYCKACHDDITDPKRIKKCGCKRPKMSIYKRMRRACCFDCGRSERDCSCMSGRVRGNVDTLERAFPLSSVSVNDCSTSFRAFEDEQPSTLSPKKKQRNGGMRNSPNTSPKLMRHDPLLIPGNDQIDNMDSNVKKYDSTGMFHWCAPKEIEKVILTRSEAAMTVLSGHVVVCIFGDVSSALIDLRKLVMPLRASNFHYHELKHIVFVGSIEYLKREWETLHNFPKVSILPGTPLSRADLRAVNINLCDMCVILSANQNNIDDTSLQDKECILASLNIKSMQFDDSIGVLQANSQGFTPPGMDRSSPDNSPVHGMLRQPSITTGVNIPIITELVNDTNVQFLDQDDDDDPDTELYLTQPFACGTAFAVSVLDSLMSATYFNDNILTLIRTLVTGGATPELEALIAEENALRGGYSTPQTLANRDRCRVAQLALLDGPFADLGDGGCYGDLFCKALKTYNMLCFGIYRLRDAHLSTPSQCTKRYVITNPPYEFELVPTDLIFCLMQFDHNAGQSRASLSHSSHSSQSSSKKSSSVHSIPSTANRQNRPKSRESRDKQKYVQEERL

[6] = washout after 10 μM, double exponential fit

Question: How did the “effect on channel activation time constant (τ activation)” value ([1]; 10 μM) turn out when Cc1cccc(NC(=O)c2sc(=S)n3c2[nH]c(=O)c2cc(Br)ccc23)c1 [TTQC-1, 7-bromo-5-oxo-1-thioxo-N-(m-tolyl)-4,5-dihydro-1H-thiazolo[3,4-a]quinazoline-3-carboxamide] was run?
Answer: Its value is “did not show significant changes”.

Question: What about the “association time constant (τ association)” value ([1]; 10 μM, +100 mV pulses, 3 μM intracellular Ca2+) of the same molecule?
Answer: The value was 11.7 ± 1.77 s.

Question: And the “increase of channel deactivation time constant (τ deactivation)” value ([1]; 10 μM, at +200 mV)?
Answer: Its value is 5.3 times.

Question: And the “half-activation voltage (V1/2)” value ([1]; 30 μM)?
Answer: The value was 37.9±7.50 mV.

Question: What about the “increase of maximum conductance (Gmax) compared to vehicle (G0max)” value ([1]; 30 μM) of the same molecule?
Answer: The value was 1.4±0.11 times.

Question: And the EC50 ([1]; 0.1-30 μM, 3 μM intracellular Ca2+, read-out: apparent EC50 of V1/2 shift (Hill equation))?
Answer: The EC50 was 2.8 µM.

Question: What about the Hill coefficient n ([1]; fit of V1/2 shift) of the same molecule?
Answer: The Hill coefficient n was 2.0.

Question: What about the “Afast (amplitude of fast dissociation component)” value ([1]; washout after 10 μM) of the same molecule?
Answer: The value was 0.49±0.064.

Question: What about the “Aslow (amplitude of slow dissociation component)” value ([1]; washout after 10 μM) of the same molecule?
Answer: Its value is 0.53±0.054.

Question: What about the “dissociation time constant, fast component” value [1, 6] of the same molecule?
Answer: The value was 7.8 ± 1.10 s.

Question: And the “dissociation time constant, slow component” value [1, 6]?
Answer: Its value is 136.2 ± 11.24 s.

Question: What about the “effect on τ activation” value [2] of the same molecule?
Answer: Its value is “changed the τ activation only at 190 mV”.

Question: And the “increase of τ deactivation” value ([2]; at 180 mV)?
Answer: The value was 4.6 times.

Question: What about the “shift of G-V curve to the left” value ([2]; β1 co-expressed) of the same molecule?
Answer: Its value is 23.0±2.67 mV.

Question: What about the “effect on τ activation” value [3] of the same molecule?
Answer: The value was “did not significantly affect”.

Question: What about the “increase of τ deactivation” value ([3]; at 170 mV) of the same molecule?
Answer: Its value is 3.7 times.

Question: What about the “shift of G-V curve to the left” value ([3]; β4 co-expressed) of the same molecule?
Answer: The value was 7.12±0.65 mV.

Question: And the “number of urinary events” value ([4]; 10 mg/kg oral, SHR vehicle 8.2)?
Answer: Its value is 3.0.

Question: And the total urine volume ([4]; oral)?
Answer: Its total urine volume is “significantly reduced”.

Question: And the “Activity (ΔRFU normalized by activities of LDD175)” value [5]?
Answer: Its value is 1.06.
